In patent US20210147343A1 (priority 2018, published 2021):

Experiments:
[1] = biological target: T1, mu opioid receptor (MOR) (Homo sapiens, UniProt P35372); assay: MOR cAMP agonist assay
[2] = system: Male Sprague-Dawley rats; assay: Hot plate assay; format: in vivo; settings: rat, SC
Procedure: Male Sprague-Dawley rats weighing 275-300 grams were used in the study, n=8-10 per group. Animals are injected SC with 0.9% normal saline solution. At 15, 45, and 80 min after the injection, animals were placed onto a hotplate set to 52 degrees centigrade, and baseline latency is recorded (baseline latency=average time to 2nd withdrawal response consisting of either a lick of a rear paw, shaking a rear paw, backwards walking or jumping). A day later animals were injected SC with test compounds either in vehicle solution, or with a mix of compounds in solution. Next the test latency was recorded (test latency=time to withdrawal on the hotplate measured at 15, 45, 80, 120, 180 and 240 min using the procedure described). Times were then converted to % maximum possible effect (% MPE)=(test_latecy−baseline_latency)/(30 sec-baseline_latency); where 30 sec is the cutoff where the animal is removed if no response ifs observed as it is the time point at which injury is expected to occur.

[3] = biological target: T2, kappa opioid receptor (KOR) (Homo sapiens, UniProt P41145); assay: cell-based; settings: kOR cAMP IC50, CHO-K1 cells expressing kOR; after activation with dynorphin B
T2 construct: host or cells: CHO-K1
T2 sequence (P41145 whole entry): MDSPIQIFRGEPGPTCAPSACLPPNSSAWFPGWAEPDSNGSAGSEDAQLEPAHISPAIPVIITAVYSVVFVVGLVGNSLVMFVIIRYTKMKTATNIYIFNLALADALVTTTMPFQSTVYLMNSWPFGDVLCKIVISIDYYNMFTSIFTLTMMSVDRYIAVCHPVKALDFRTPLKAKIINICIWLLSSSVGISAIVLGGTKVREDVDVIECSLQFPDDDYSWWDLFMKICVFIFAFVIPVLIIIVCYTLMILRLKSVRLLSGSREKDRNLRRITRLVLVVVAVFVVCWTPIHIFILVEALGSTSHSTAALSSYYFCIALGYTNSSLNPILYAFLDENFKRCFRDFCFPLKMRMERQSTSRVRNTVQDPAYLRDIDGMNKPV
Excerpt: KOR cAMP Antagonist Assay

[4] = biological target: T1, mu opioid receptor (MOR); assay: MOR cAMP antagonist assay; format: cell-based; set-up: host or cells: CHO-K1
Excerpt: MOR cAMP Antagonist Assay

T1 sequence (P35372 whole entry): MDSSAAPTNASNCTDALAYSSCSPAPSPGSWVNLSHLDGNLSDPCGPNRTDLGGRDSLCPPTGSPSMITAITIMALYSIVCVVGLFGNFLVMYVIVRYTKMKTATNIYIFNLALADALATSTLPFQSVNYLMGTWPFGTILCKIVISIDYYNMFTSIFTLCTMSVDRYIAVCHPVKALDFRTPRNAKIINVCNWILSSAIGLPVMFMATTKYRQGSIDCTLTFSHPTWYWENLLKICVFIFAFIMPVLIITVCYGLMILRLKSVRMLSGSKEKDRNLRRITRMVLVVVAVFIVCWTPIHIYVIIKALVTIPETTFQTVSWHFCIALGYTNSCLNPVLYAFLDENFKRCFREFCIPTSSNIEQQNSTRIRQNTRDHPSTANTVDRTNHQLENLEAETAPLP

SMILES	EC50 [1]	effect on the analgesic activity of agonist Compound B-56 in the hotplate test ([2]; co-dosed with Compound B-56, FIG. 1)	effect on its own in the hotplate test ([2]; dosed alone, FIG. 1)	IC50 [3]	IC50 [4]	analgesic activity in the hotplate test (time to exhibit a withdrawal response) ([2]; hotplate 52 degrees centigrade, FIG. 1)
CN(C)[C@H](CNC(=O)[C@@H]1C[C@]1(C)c1ccccc1)Cc1ccc(O)cc1Cl [Compound B-15, (1R,2S)—N—((S)-3-(2-chloro-4-hydroxyphenyl)-2-(dimethylamino)-propyl)-2-methyl-2-phenylcyclopropane-1-carboxamide]	> 1000 nM	blocks	no effect	> 1000 nM	–	–
CN(C)[C@H](CNC(=O)[C@@H]1C[C@]1(C)c1ccccc1)Cc1ccc(O)cc1F [Compound B-31, (1R,2S)—N—((S)-2-(dimethylamino)-3-(2-fluoro-4-hydroxyphenyl)propyl)-2-methyl-2-phenylcyclopropane-1-carboxamide]	< 100 nM	–	–	< 100 nM	< 100 nM	–
CCN(CC)[C@H](CNC(=O)[C@@H]1C[C@]1(C)c1ccccc1)Cc1ccc(O)c(C)c1 [Compound B-41, (1R,2S)—N—((S)-2-(diethylamino)-3-(4-hydroxy-3-methylphenyl)propyl)-2-methyl-2-phenylcyclopropane-1-carboxamide]	< 100 nM	–	–	100 to 1000 nM	100 to 1000 nM	–
Cc1cc(C[C@@H](CNC(=O)[C@@H]2C[C@]2(C)c2ccccc2)N(C)C)ccc1O [Compound B-42, (1R,2S)—N—((S)-2-(dimethylamino)-3-(4-hydroxy-3-methylphenyl)propyl)-2-methyl-2-phenylcyclopropane-1-carboxamide]	< 100 nM	–	–	100 to 1000 nM	< 100 nM	–
Cc1cc(O)ccc1C[C@@H](CNC(=O)[C@@H]1C[C@]1(C)c1ccccc1)N(C)C [Compound B-48, (1R,2S)—N—((S)-2-(dimethylamino)-3-(4-hydroxy-2-methylphenyl)propyl)-2-methyl-2-phenylcyclopropane-1-carboxamide]	> 1000 nM	–	–	< 100 nM	< 100 nM	–
Cc1cc(O)ccc1C[C@@H](CNC(=O)[C@@H]1C[C@@]1(C)c1ccccc1)N(C)C [Compound B-56, (1R,2R)—N—((S)-2-(dimethylamino)-3-(4-hydroxy-2-methylphenyl)propyl)-2-methyl-2-phenylcyclopropane-1-carboxamide]	< 100 nM	–	–	< 100 nM	–	analgesic
